Experimental data from patent US5652222A, “Selective inhibition of leukemic cell proliferation by bcr-abl antisense oligonucleotides” (Temple University-of The Commonwealth System of Higher …, priority 1993, dated 1997).
Where “and” joins values, the source holds several entries; their conditions need not be identical. Identical values can stand only once.

Key:
[1] = tested on: CML blast crisis cells (L-6 type junction); assay: CFU-L colony formation of CML blast crisis cells (Example 3); type: cell-based, human
From the text: Normal bone marrow mononuclear cells (MNC) were obtained by aspiration from consenting volunteers and enriched for hematopoietic progenitors as previously reported by numerous investigators (Zamecnick et al., Proc. Natl. Acad. Sci. U.S.A. 83, 4143-4147 (1986); Caracciolo et al., J. Clin. Invest. 85, 55-61 (1990)). In brief, marrow cells were subjected to Ficoll-Hypaque density gradient sedimentation and then depleted of adherent monocyte-macrophage and T-lymphocytes by adherence to plastic Petri dishes and rosetting with neuraminidase-treated sheep red blood cells, respectively. Philadelphia chromosome-positive blast cells were isolated by Ficoll-Hypaque density gradient sedimentation from a CML patient in blast crisis (L-6 type junction). […] The residual non-blast cells had the morphological appearance of small lymphocytes. 25,000 MNC and 25,000 CML blast cells were combined and incubated with bcr-abl breakpoint-Specific antisense oligomer (SEQ ID NO:3) (40 μg/ml at h 0; 20 μg/ml 18 hours later) or with a 4 nucleotide mismatch bcr-abl antisense oligomer (SEQ ID NO:2) (40 μg/ml at 0 h; 20 μg/ml 18 hours later) or left untreated. Four hours after the second addition of oligonucleotides to the cultures, cells were seeded into duplicate methylcellulose dishes containing IL-3 (20 U/ml) and GM-CSF (5 ng/ml) and allowed to grow for an additional 12 days. At the end of the incubation period colonies were counted.
The data is shown in Table 3, below, wherein values represent mean ± standard deviation of duplicate control cultures (no oligonucleotide added) and duplicate experimental cultures from two separate experiments. Colony forming unit-granulocyte macrophage (CFU-GM)-derived colonies consisted of 50 or more cell aggregates, while CFU-GM-derived clusters were defined as aggregates of between 4 and 40 cells. These are normal hematopoietic colonies derived from progenitors with the capability to differentiate along the granulocytic and macrophage lineages. […]

[2] = tested on: BV173 cells; assay: Clonogenic assay of tissues of leukemic SCID mice; type: in vivo, SCID mice (human leukemic cells)
Experimental: A second assay for leukemic disease comprised a clonogenic assay in semisolid medium. […] By contrast, BV173 cells formed numerous, rapidly growing colonies. To rule out the possibility that the presence of BV173 cells permitted the growth of murine progenitors, mixing experiments were carried out.
To determine whether synthetic phosphorothioate oligodeoxynucleotides targeted against the bcr-abl junction of […] cells would modify the disease process in SCID mice. SCID mice were injected with 10^6 BV173 cells. The mice then received 1 mg of sense (ATCAATAAGG AAGCCCTTCAGCG, SEQ ID NO:34) or antisense ([…] ATTGAT, SEQ ID NO:29) b2/a2 bcr-abl phosphorothioate oligodeoxynucleotides (pyrogen leven <1 Eu/mg; 0.2 ml in Iscove modified Dulbecco medium in 5-10 seconds) intravenously for each of 9 consecutive days, beginning either 7 or 21 days after introducing 10^6 BV173 cells. Control mice received the diluent (iscove's modified Dulbecco medium) only. These time points approximate distinct disease stages in humans.
10^5 cells were plated in duplicate in 35×10 mm tissue culture dishes (Nunc, Inc., Naperville, Ill.) in HCC-4230 medium (Terry Fox Lab., Vancouver, Canada) supplemented with 2.5 mM L-glutamine, and allowed to grow for 12 days. Plates were scanned with an inverted microscope and total colony number was determined. The results are shown in FIG. 9 (C, untreated mouse; S, sense-treated mouse, AS, antisense-treated mouse).

[3] = 1 mg/day i.v. x9 from day +7, killed 26 days after last treatment (6 weeks)
[4] = 1 mg/mouse/day x9 from day +21, 26 days after treatment (8 weeks)

Substance | Colonies or Clusters, CFU-L (colonies formed from CML blast crisis cells) ([1]; Table 3, 40 μg/ml at 0 h, 20 μg/ml 18 h later, 12 days, mean ± SD, control 806 ± 70) | number of colonies arising from the CML blast crisis cells (CFU-L) ([1]; after twelve days in culture) | leukemic colonies, bone marrow and spleen [2, 3] | leukemic colonies, peripheral blood leukocytes [2, 3] | leukemic colonies, bone marrow ([2]; 1 mg/mouse/day i.v. x9 from day +7, killed 12 days after last treatment (4 weeks), untreated 353±52) | leukemic colonies, peripheral blood mononuclear cells ([2]; 1 mg/mouse/day x9 from day +21, 12 days after last treatment (6 weeks), untreated 11.0±8.5) | leukemic colonies, spleen ([2]; 1 mg/mouse/day x9 from day +21, 12 days after last treatment (6 weeks), untreated 80.5±12.0) | leukemic colonies, bone marrow ([2]; 1 mg/mouse/day x9 from day +21, 12 days after last treatment (6 weeks), untreated 575.5±83.8) | leukemic colonies, bone marrow [2, 4] | leukemic colonies, peripheral blood [2, 4] | leukemic colonies, spleen [2, 4]
SEQ ID NO:3: synthetic 18-mer GAAGGGCTTC TTCCTTAT specific for the 18-nucleotide target sequence of the L-6 bcr-abl junction (antisense GAAGGGCTTCTTCCTTAT; chemistry not given here) | 180 ± 14 colonies or clusters | much lower than that arising in the presence of the mismatched bcr-abl oligomer | – | – | – | – | – | – | – | – | –
SEQ ID NO:34: phosphorothioate sense sequence ATCAATAAGGAAGCCCTTCAGCG (23-mer b2a2 sense) (sense ATCAATAAGGAAGCCCTTCAGCG; all phosphorothioate, sugars by position and methylation of C not given here) | – | – | numerous leukemic colonies | A few colonies | 380±25 colonies | 14.5±4.9 colonies | 116.0±29.7 colonies | 668.5±59.1 colonies | 839.5±41.7 colonies | 51.0±41.7 colonies and 51.0±14.1 colonies | 548.5±128.0 colonies
